Results taken from paper PMC11784839, “Monoaminergic neurotransmitters are bimodal effectors of tau aggregation” (Science Advances, 2025).

Biological target: tau (Homo sapiens, UniProt P10636)
Experiment: MCE Phenols Library screening, tau biosensor cell seeding assay (AvZ)
Assay type: cell-based
Settings: for Z repl 1 / Z Repl 2: Z score; for Z repl 1 / raw data 1: replicate 1; for Z Repl 2 / raw data 2: replicate 2; for AvZ (average z score of seeding, SDs from the mean level of seeding): 10 μM phenol in cell cultures, AD brain homogenate preincubated 16 hours, two biological replicates, positive = catalyzes seeding, negative = inhibits
[1] = average Z score of the two replicates, MCE Phenols Library screen
[2] = average Z score of two replicates, Phenols Library screen
[3] = average Z score of the two replicates, tau biosensor seeding, MCE Phenols Library screen
[4] = average puncta of the two replicates
[5] = average Z score of the two replicates, tau seeding

Sequence of tau (P10636 623-695 limits assumed): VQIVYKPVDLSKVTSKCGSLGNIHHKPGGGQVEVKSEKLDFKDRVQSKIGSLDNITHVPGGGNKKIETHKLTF

Row | Compound | Z repl 1 | Z Repl 2 | av Z [1] | av puncta (average of raw data 1 and 2) | raw data 1 (puncta) | raw data 2 (puncta) | av Z [2] | av Z [3] | av puncta [4] | raw data 1 (raw puncta) | raw data 2 (raw puncta) | AvZ (average z score of seeding, SDs from the mean level of seeding) | av Z [5]
1 | Engeletin | -1.222 | -0.399 | -0.81 | 10092.3 | 11684.3 | 8500.41 |  |  |  |  |  |  | 
2 | COc1ccc(-c2cc(=O)c3c(O)cc(OC)cc3o2)cc1 [7,4'-Di-O-methylapigenin] | 0.072 | -0.073 |  | 19598.9 | 27207.6 | 11990.2 | -0.001 |  |  |  |  |  | 
3 | COc1cc2c(cc1O)CC[C@@H]1[C@@H]2CC[C@]2(C)[C@@H](O)CC[C@@H]12 [2-Methoxyestradiol] | 1.646 | 0.7 |  | 33178.1 | 46109.4 | 20246.7 |  | 1.173 |  |  |  |  | 
4 | Cc1c(C)c2c(c(C)c1O)CC[C@@](C)(CCC[C@H](C)CCC[C@H](C)CCCC(C)C)O2 [?-Vitamin E] | -0.172 | -0.481 | -0.326 |  |  |  |  |  | 15958 | 24288.2 | 7627.82 |  | 
5 | COc1cc(C[C@@H](CO)[C@H](CO)Cc2ccc(O)c(OC)c2)ccc1O [Secoisolariciresinol] | 1.372 | 0.426 |  | 30068 | 42819.5 | 17316.5 |  | 0.899 |  |  |  |  | 
6 | Bavachinin | 0.618 | -0.383 |  | 21219.6 | 33763.9 | 8675.17 | 0.117 |  |  |  |  |  | 
7 | O=C(O)Cc1cc(O)ccc1O [Homogentisic acid] | -1.286 | -1.085 |  | 6046.8 | 10913.7 | 1179.87 |  |  |  |  |  | -1.185 | 
8 | O.O.O=c1c(O)c(-c2ccc(O)c(O)c2)oc2cc(O)cc(O)c12 [Quercetin (dihydrate)] | -1.56 | -1.162 | -1.361 | 3988.66 | 7625.22 | 352.104 |  |  |  |  |  |  | 
9 | O=C(O[C@@H]1[C@@H](O)[C@H](Oc2cc(O)c(C(=O)CCc3ccccc3)c(O)c2)O[C@@H]2COC(=O)c3cc(O)c(O)c(O)c3-c3c(cc(O)c(O)c3O)C(=O)O[C@@H]12)c1cc(O)c(O)c(O)c1 [Thonningianin A] | -1.226 | -0.652 | -0.939 | 8713.6 | 11629.9 | 5797.27 |  |  |  |  |  |  | 
10 | Oc1cc(O)c2c(c1)O[C@@H](c1cc(O)c(O)c(O)c1)[C@H](O)C2 [(-)-Gallocatechin] | -1.316 | -0.749 | -1.032 | 7661.42 | 10555.6 | 4767.22 |  |  |  |  |  |  | 
11 | Liquiritin apioside | 0.133 | -0.022 |  | 20239.1 | 27949.8 | 12528.3 | 0.056 |  |  |  |  |  | 
12 | O=c1c(O)c(-c2ccc(O)cc2)oc2cc(O)cc(O)c12 [Kaempferol] | -0.004 | -0.903 | -0.454 |  |  |  |  |  | 14707.1 | 26297.7 | 3116.65 |  | 
13 | O=c1c(O)c(-c2ccc(O)c(O)c2)oc2cc(O)c(O)c(O)c12 [Quercetagetin] | -1.958 | -1.183 | -1.57 | 1487.44 | 2842.17 | 132.721 |  |  |  |  |  |  | 
14 | (+)-Usnic acid | 0.232 | -0.478 |  | 18398.3 | 29133.2 | 7663.33 | -0.123 |  |  |  |  |  | 
15 | COc1ccc(-c2oc3c(CC=C(C)C)c(O[C@@H]4O[C@H](CO)[C@@H](O)[C@H](O)[C@H]4O)cc(O)c3c(=O)c2O[C@@H]2O[C@@H](C)[C@H](O)[C@@H](O)[C@H]2O[C@@H]2OC[C@@H](O)[C@H](O)[C@H]2O)cc1 [Epimedin B] | 0.357 | 0.482 |  | 24278.7 | 30639 | 17918.4 |  |  |  |  |  |  | 0.42
16 | COc1cc(CCCO)cc(OC)c1O [Dihydrosinapyl alcohol] | -0.789 | 0.221 |  |  |  |  |  |  | 16004.7 | 16882.6 | 15126.8 | -0.284 | 
17 | CN(C)[C@@H]1C(O)=C(C(N)=O)C(=O)[C@@]2(O)C(O)=C3C(=O)c4c(O)cccc4[C@@](C)(O)[C@H]3C[C@@H]12.Cl [Tetracycline (hydrochloride)] | 0.657 | 0.47 |  | 26010.3 | 34234.2 | 17786.4 |  |  |  |  |  |  | 0.563

Row | Compound | Z repl 1 | Z Repl 2 | av Z [1] | av puncta (average of raw data 1 and 2) | raw data 1 (puncta) | raw data 2 (puncta) | av Z [2] | av Z [3] | av puncta [4] | raw data 1 (raw puncta) | raw data 2 (raw puncta) | AvZ (average z score of seeding, SDs from the mean level of seeding) | av Z [5]
18 | Myricitrin | -0.619 | -1.178 | -0.899 | 9550.45 | 18913 | 187.899 |  |  |  |  |  |  | 
19 | OC[C@H]1O[C@@H](Oc2cc(/C=C/c3cc(O)cc(O)c3)ccc2O)[C@H](O)[C@@H](O)[C@@H]1O [Piceatannol 3'-O-glucoside] | 0.407 | 0.408 |  | 24178.5 | 31229.6 | 17127.3 |  |  |  |  |  |  | 0.407
20 | O=c1c(-c2ccc(O)cc2)coc2cc(O[C@@H]3O[C@H](CO)[C@@H](O)[C@H](O)[C@H]3O)cc(O)c12 [Genistin] | 0.673 | 0.138 |  | 24334.9 | 34427 | 14242.8 |  |  |  |  |  |  | 0.406
21 | O=c1cc(-c2ccc(O)c(O)c2)oc2c([C@@H]3O[C@H](CO)[C@@H](O)[C@H](O)[C@H]3O)c(O)cc(O)c12 [Orientin] | 0.558 | -0.368 |  | 20945 | 33050.1 | 8839.87 | 0.095 |  |  |  |  |  | 
22 | COc1cc(O)c2c(c1)O[C@H](c1ccc(O)cc1)CC2=O [Sakuranetin] | 0.003 | -0.01 |  | 19521.3 | 26379.5 | 12663.1 | -0.004 |  |  |  |  |  | 
23 | COc1cc(O)c2c(c1)oc(=O)c1c3cc(O)c(O)cc3oc21 [Wedelolactone] | -0.852 | -1.136 | -0.994 | 8376 | 16120.2 | 631.756 |  |  |  |  |  |  | 
24 | CC(C(=O)c1ccc(O)cc1O)c1ccc(O)cc1 (centres unmarked) [O-Desmethylangolensin] | 0.135 | -0.221 |  | 19189.1 | 27969 | 10409.2 | -0.043 |  |  |  |  |  | 
25 | CC(C)(c1ccc(O)cc1)c1ccc(O)cc1 [Bisphenol A] | 0.124 | 0.085 |  | 20753.8 | 27836.8 | 13670.7 | 0.104 |  |  |  |  |  | 
26 | COc1c(O)c(C)cc2c1C(=O)c1c(O)cccc1C2=O [Obtusifolin] | -0.23 | 0.069 |  | 18542 | 23582.4 | 13501.7 | -0.081 |  |  |  |  |  | 
27 | COc1ccc2cc1Oc1ccc(cc1)C[C@H]1c3cc(c(OC)cc3CCN1C)Oc1c(O)c(OC)cc3c1[C@@H](C2)N(C)CC3 [(R)-Fangchinoline] | 0.226 | 0.65 |  | 24385.2 | 29066.8 | 19703.5 |  |  |  |  |  |  | 0.438
28 | OC[C@H]1O[C@@H](Oc2cc3c(O)cc(O)cc3[o+]c2-c2cc(O)c(O)c(O)c2)[C@H](O)[C@@H](O)[C@@H]1O.[Cl-] [Delphinidin 3-glucoside (chloride)] | -1.229 |  | -1.2 | 5928.77 | 11598.4 | 259.098 |  |  |  |  |  |  | 
29 | COc1ccc(-c2oc3c(CC=C(C)C)c(O)cc(O)c3c(=O)c2O[C@@H]2O[C@@H](C)[C@H](O)[C@@H](O)[C@H]2O[C@@H]2O[C@H](CO)[C@@H](O)[C@H](O)[C@H]2O)cc1 [Sagittatoside A] | -0.371 | -0.506 | -0.438 |  |  |  |  |  | 14630.2 | 21894.6 | 7365.88 |  | 
30 | O=c1cc(-c2ccc(O)cc2)oc2cc(O[C@@H]3O[C@H](CO)[C@@H](O)[C@H](O)[C@H]3O)cc(O)c12 [Apigenin 7-glucoside] | 0.518 | -0.371 |  | 20688.8 | 32570.5 | 8807.12 | 0.074 |  |  |  |  |  | 
31 | COc1ccc(/C=C/c2cc(O)cc(O[C@@H]3O[C@H](CO)[C@@H](O)[C@H](O)[C@H]3O)c2)cc1 [Desoxyrhaponticin] | 0.811 | -0.238 |  | 23150.9 | 36082.1 | 10219.6 |  |  |  |  |  |  | 0.286
32 | Oc1ccc([C@H]2Oc3cc(O)cc(O)c3C[C@H]2O)cc1 [(-)-Epiafzelechin] | -0.198 | 0.182 |  | 19340.4 | 23970.4 | 14710.3 | -0.008 |  |  |  |  |  | 
33 | CC(C)=CCc1c(-c2ccc(O)cc2O)oc2c3c(cc(O)c2c1=O)OC(C)(C)C=C3 [Morusin] | -0.601 | -0.306 | -0.454 |  |  |  |  |  | 14314.5 | 19129.3 | 9499.74 |  | 
